The test system of one experiment is normal human fibroblasts (NHF, GM21811). Nature of the experiment: NHF GM21811 RSL3 challenge cell survival (rescue) assay. To be noted: Fibroblast, NHF cells, RSL3 2 micromolar, 48 h, Cell Titer Glo, read-out: NHF GM21811 RSL3 Survival EC50. It counts as cell-based. The source says: (§1) In neuronal cells excess extracellular glutamate inhibits the cystine/glutamate antiporter leading to intracellular cysteine depletion, GSH depletion, reactive oxygen species (ROS) production and cell death, a phenomenon termed oxidative glutamate toxicity, oxytosis, or ferroptosis. […] Q7 cells (ST HDH Q7/7; immortalized mouse striatal cells) challenged with cystine-free media or the selective, irreversible GPX4 inhibitor, methyl (1S,3R)-2-(2-chloroacetyl)-1-(4-(methoxycarbonyl)phenyl)-2,3,4,9-tetrahydro-1H-pyrido[3,4-b]indole-3-carboxylate (hereafter referred to as RSL3), recapitulate this phenotype, as do normal human fibroblasts (NHF) challenged with RSL3. An initial screen was performed to identify compounds effective in rescuing Q7 and/or NHF cells from death resulting from cystine deprivation or RSL3 challenge. This method is further described in Yonezawa et al., J. Neurochem 67, 566-573 (1996), Li et al., J Neurosci., 23, 5816-5826 (2003), Yang and Stockwell, Chem Biol., 15: 234-45 (2008), and Yang et al., Cell 156, 317-331 (2014). See also Hinman A, Holst C R, Latham J C, et al. Vitamin E hydroquinone is an endogenous regulator of ferroptosis via redox control of 15-lipoxygenase. PLoS One. 2018; 13(8):e0201369. Published 2018 Aug. 15. doi:10.1371/journal.pone.0201369; and Kahn-Kirby A H, Amagata A, Maeder C I, et al. Targeting ferroptosis: A novel therapeutic strategy for the treatment of mitochondrial disease-related epilepsy. PLoS One. 2019; 14(3):e0214250. Published 2019 Mar. 28. doi:10.1371/journal.pone.0214250.
(§2) DMEM (Catalog no. 11995-040), DMEM without Cystine (Catalog no. 21013-024), DMEM without Glucose (Catalog A1443001), PBS (Phosphate buffered saline), Penicillin-streptomycin mix, L-Glutamine, Glucose, Phenol Red, and Pyruvate were purchased from ThermoFisher Scientific (Gibco). Fetal Bovine Serum was obtained from Mediatech, Inc., or Sigma Aldrich. Mouse striatum derived ST HDH Q7/7 (Q7) and normal human skin fibroblast (NHF, product number GM21811) cells were obtained from the Coriell Institute. Methionine and Vitamin K2 were purchased from Sigma Aldrich. RSL3 was synthesized as previously described (see e.g. US Patent Publication US2010/0081654). Cell Titer Glo 2.0 was purchased from Promega. Q7 cell culture medium (Q7 growth medium) was made by combining 50 mL Fetal Bovine Serum, 100 U/mL penicillin, and 100 microgram/mL streptomycin; DMEM was added to make the volume up to 500 mL. Assay medium for the Cystine Deprivation assay was prepared by combining 50 mL Fetal Bovine Serum, 100 U/mL penicillin, 100 microgram/mL streptomycin, 4 mM L-Glutamine, 1 mM Pyruvate and 30 mg/L Methionine; DMEM without Cystine was added to make the volume up to 500 mL. NHF cell culture medium (NHF growth medium) was made by combining 50 mL Fetal Bovine Serum, 100 U/mL penicillin, 100 microgram/mL streptomycin, 2.8 mL 20% Glucose solution (final concentration 6 mM), L-glutamine (final concentration 2 mM), phenol red (final concentration 15 mg/L); DMEM without Glucose was added to make the volume up to 500 mL. Assay medium for the RSL3 challenge assay was identical to Growth medium. While not in use during the course of the experiments, these solutions were stored at 4° C. The cells were grown in 150-cm^2 tissue culture-treated flasks. Every third or fourth day, the cells were sub-cultured by trypsinization and re-seeded at a cell density of 600,000 (Q7) or 300,000 (NHF) cells per flask.
(§3) Q7 or NHF cells were cultured routinely as described herein. For 384-well cell survival assays, cells were seeded in clear bottom, black wall 384-well tissue culture-treated polystyrene plates by re-suspending a cell suspension at a density of 50,000 cells/mL in growth medium, then dispensing 60 microliters of cell suspension per well using either an electronic multichannel pipette or a Multidrop™ Combi Reagent Dispenser (ThermoFisher Scientific), corresponding to 3,000 cells/well. […]
(In general: Cellular ATP, detected with luciferase, serves as a proxy for viable cell number.)
Consider `CCC1=C(Cc2cc(C)c(F)cn2)C(=O)c2c(F)ccc(F)c2C1=O` [Example 135, 2-ethyl-5,8-difluoro-3-((5-fluoro-4-methylpyridin-2-yl)methyl)naphthalene-1,4-dione], for which the EC50 (usually the midpoint of the concentration-response curve) is under 0.05 µM.

Regarding `COc1cnc(CC2=C(C)C(=O)c3ccccc3C2=O)cc1C(F)(F)F` [Example 145, 2-((5-methoxy-4-(trifluoromethyl)pyridin-2-yl)methyl)-3-methylnaphthalene-1,4-dione], the EC50 was under 0.05 µM.

Consider `CCC1=C(Cc2ncc(C(F)(F)F)cc2F)C(=O)c2c(F)cc(F)cc2C1=O` [Example 64, 2-ethyl-5,7-difluoro-3-((3-fluoro-5-(trifluoromethyl)pyridin-2-yl)methyl)naphthalene-1,4-dione], for which the EC50 was under 0.05 µM.

Regarding `CCC1=C(Cc2cc(C(F)(F)F)c(OC)cn2)C(=O)c2c(F)ccc(F)c2C1=O` [Example 134, 2-ethyl-5,8-difluoro-3-((5-methoxy-4-(trifluoromethyl)pyridin-2-yl)methyl)naphthalene-1,4-dione], the EC50 was under 0.05 µM.

`CCC1=C(Cc2ccc(C(F)(F)F)c(O)n2)C(=O)c2c(F)ccc(F)c2C1=O` [Example 153, 2-ethyl-5,8-difluoro-3-((6-hydroxy-5-(trifluoromethyl)pyridin-2-yl)methyl)naphthalene-1,4-dione]: the EC50 was under 0.05 µM.

As for `CCC1=C(Cc2ccc(C(C)(F)F)cn2)C(=O)c2c(F)ccc(F)c2C1=O` [Example 62, 2-((5-(1,1-difluoroethyl)pyridin-2-yl)methyl)-3-ethyl-5,8-difluoronaphthalene-1,4-dione], the EC50 is under 0.05 µM.

For `CCC1=C(Cc2ccc(C(F)F)cn2)C(=O)c2c(F)ccc(F)c2C1=O` [Example 136, 2-((5-(difluoromethyl)pyridin-2-yl)methyl)-3-ethyl-5,8-difluoronaphthalene-1,4-dione], the EC50 is under 0.05 µM.

`CCC1=C(Cc2ccc(C(F)(F)F)c(OC)n2)C(=O)c2c(F)ccc(F)c2C1=O` [Example 152, 2-ethyl-5,8-difluoro-3-((6-methoxy-5-(trifluoromethyl)pyridin-2-yl)methyl)naphthalene-1,4-dione]: the EC50 was under 0.05 µM.

Regarding `CCC1=C(Cc2ccc(C(F)(F)F)c(C#N)n2)C(=O)c2c(F)cc(F)cc2C1=O` [Example 93, 6-((3-ethyl-6,8-difluoro-1,4-dioxo-1,4-dihydronaphthalen-2-yl)methyl)-3-(trifluoromethyl)picolinonitrile], the EC50 was under 0.05 µM.

For the molecule `CC1=C(Cc2ccc(C(F)(F)F)c[n+]2[O-])C(=O)c2ccccc2C1=O` [Example 150, 2-((3-methyl-1,4-dioxo-1,4-dihydronaphthalen-2-yl)methyl)-5-(trifluoromethyl)pyridine 1-oxide], the EC50 was under 0.05 µM.

As to `O=C1C(C2CC2)=C(Cc2ccc(C(F)(F)F)cn2)C(=O)c2c(F)cc(F)cc21` [Example 65, 2-cyclopropyl-5,7-difluoro-3-((5-(trifluoromethyl)pyridin-2-yl)methyl)naphthalene-1,4-dione], the 50% effective concentration (EC50) was under 0.05 µM.

For `CCC1=C(Cc2ccc(F)c(C#N)n2)C(=O)c2c(F)ccc(F)c2C1=O` [Example 132, 6-((3-ethyl-5,8-difluoro-1,4-dioxo-1,4-dihydronaphthalen-2-yl)methyl)-3-fluoropicolinonitrile], the EC50 was under 0.05 µM.

Consider `CCC1=C(Cc2ccc(C(F)F)cn2)C(=O)c2c(F)cc(F)cc2C1=O` [Example 67, 3-((5-(difluoromethyl)pyridin-2-yl)methyl)-2-ethyl-5,7-difluoronaphthalene-1,4-dione], for which the EC50 is under 0.05 µM.

As to `CCC1=C(Cc2ccc(C(F)(F)F)c(C)n2)C(=O)c2c(F)ccc(F)c2C1=O` [Example 139, 2-ethyl-5,8-difluoro-3-((6-methyl-5-(trifluoromethyl)pyridin-2-yl)methyl)naphthalene-1,4-dione], the concentration for a half-maximal effect (EC50) is under 0.05 µM.

For `N#Cc1nc(CC2=C(C3CC3)C(=O)c3cc(F)cc(F)c3C2=O)ccc1C(F)(F)F` [Example 95, 6-((3-cyclopropyl-6,8-difluoro-1,4-dioxo-1,4-dihydronaphthalen-2-yl)methyl)-3-(trifluoromethyl)picolinonitrile], the EC50 is under 0.05 µM.

For `CCC1=C(Cc2cccc(OC)n2)C(=O)c2c(F)ccc(F)c2C1=O` [Example 89, 2-ethyl-5,8-difluoro-3-((6-methoxypyridin-2-yl)methyl)naphthalene-1,4-dione], the EC50 is under 0.05 µM.

Take `O=C1C(Cc2ccc(C(F)(F)F)cn2)=C(CC2COC2)C(=O)c2c(F)ccc(F)c21` [Example 90, 5,8-difluoro-2-(oxetan-3-ylmethyl)-3-((5-(trifluoromethyl)pyridin-2-yl)methyl)naphthalene-1,4-dione]: the EC50 is under 0.05 µM.

`O=C1C(Cc2ccc(C(F)(F)F)cn2)=C(C2CC2)C(=O)c2c(F)ccc(F)c21` [Example 91, 2-cyclopropyl-5,8-difluoro-3-((5-(trifluoromethyl)pyridin-2-yl)methyl)naphthalene-1,4-dione]: the EC50 was under 0.05 µM.

Consider `CCC1=C(Cc2cc(C(F)(F)F)c(C)cn2)C(=O)c2c(F)ccc(F)c2C1=O` [Example 66, 2-ethyl-5,8-difluoro-3-((5-methyl-4-(trifluoromethyl)pyridin-2-yl)methyl)naphthalene-1,4-dione], for which the EC50 is under 0.05 µM.

For the molecule `CCC1=C(Cc2ccc(OC(F)(F)F)cn2)C(=O)c2c(F)cc(F)cc2C1=O` [Example 142, 2-ethyl-5,7-difluoro-3-((5-(trifluoromethoxy)pyridin-2-yl)methyl)naphthalene-1,4-dione], the EC50 is under 0.05 µM.

On to `CCC1=C(Cc2cc(C)c(F)cn2)C(=O)c2ccccc2C1=O` [Example 146, 2-ethyl-3-((5-fluoro-4-methylpyridin-2-yl)methyl)naphthalene-1,4-dione], for which the 50% effective concentration (EC50) was under 0.05 µM.

The next experiment concerns Q7 cells (ST HDH Q7/7; immortalized mouse striatal cells). In words: Q7 Cystine Deprivation cell survival (rescue) assay. The experiment is classed as cell-based. The following applies: Q7 cells, cystine-free medium, 18 h, Cell Titer Glo, 50% relative viability vs Vitamin K2 (1 micromolar), read-out: Q7 Cystine Deprivation Survival EC50.
From the text: as §1, §2, §3
Turning to `CC1=C(Cc2cc(C)c(C(F)(F)F)cn2)C(=O)c2ccccc2C1=O` [Example 4, 2-methyl-3-((4-methyl-5-(trifluoromethyl)pyridin-2-yl)methyl)naphthalene-1,4-dione], the EC50 is under 0.05 µM.

For `CC1=C(Cc2ccc(C(F)(F)F)cn2)C(=O)c2cc(F)ccc2C1=O` [Example 45, 6-fluoro-2-methyl-3-((5-(trifluoromethyl)pyridin-2-yl)methyl)naphthalene-1,4-dione], the EC50 is under 0.05 µM.

For `CC1=C(Cc2ccc(C(N)=O)nn2)C(=O)c2ccccc2C1=O` [Example 14, 6-((3-methyl-1,4-dioxo-1,4-dihydronaphthalen-2-yl)methyl)pyridazine-3-carboxamide], the EC50 is under 0.05 µM.

In the case of `CC(C)CCC1=C(Cc2ccc(C(F)(F)F)cn2)C(=O)c2ccccc2C1=O` [Example 34, 2-isopentyl-3-((5-(trifluoromethyl)pyridin-2-yl)methyl)naphthalene-1,4-dione], the EC50 lay within 0.05 to 0.25 µM.

`CCCC1=C(Cc2ccc(C(F)(F)F)nn2)C(=O)c2ccccc2C1=O` [Example 107, 2-propyl-3-((6-(trifluoromethyl)pyridazin-3-yl)methyl)naphthalene-1,4-dione]: the concentration for a half-maximal effect (EC50) is under 0.05 µM.

On to `CC1=C(Cc2ccc(C)nn2)C(=O)c2ccccc2C1=O` [Example 5, 2-methyl-3-((6-methylpyridazin-3-yl)methyl)naphthalene-1,4-dione], for which the EC50 was under 0.05 µM.

The record behind these values is US20230002324A1, “NAPHTHOQUINONE DERIVATIVES FOR TREATMENT OF OXIDATIVE STRESS DISORDERS” (PTC THERAPEUTICS, INC., priority 2019, published 2023).
